Results reported in article PMC6160049 (PLoS ONE, 2018).
Values belong to the molecule of their own block, whether it stands above or below them.

What was measured:
[1] = Peptide with mannose lipid (ML-C14) plasma stability analysis; details: for dynantin remaining in rat plasma / dynantin degradation in rat plasma: 37 °C, RP-HPLC, UV 210 nm; for dynantin remaining in rat plasma: relative to T-zero; for dynantin degradation in rat plasma: 48 h
Description: (§1) Female Sprague Dawley rats were purchased from Charles River (QC, Canada). Rats were housed at the Laurentian University Animal Care Facility and supplied with food and water ad libitum. All experimental protocols were approved by the Health Sciences North Research Institute biosafety committee and the Laurentian University animal care committee. Blood was collected from rats under a surgical plane of anesthesia using isoflurane via cardiac puncture. Rats were then euthanized by excess isoflurane in addition to the severing of the descending aorta and cutting of the diaphragm. Blood was immediately mixed with an ethylenediaminetetraacetic acid solution (Fisher Scientific, Fairlawn NJ,0.1 M, 5 mM final concentration) and stored on ice until being centrifuged at 2,100 x G and 4 °C for 10 minutes. The top plasma layer was removed, aliquoted and stored at -80 °C.
(§2) Dynantin samples were analyzed at a constant solvent flow rate of 0.7 mL/min at 35 °C using a binary gradient (Table 1). Solvent A consisted of a 25% solution of acetonitrile (HPLC grade Fisher Scientific) in ddH2O (0.2 μm filtered) and solvent B consisted of acetonitrile, with each solvent containing 0.1% trifluoroacetic acid (v/v, protein sequencing grade, Sigma Aldrich, Fairlawn NJ).
(§3) MDP samples were analyzed at a constant solvent flow rate of 1.0 mL/min at 35 °C using a binary gradient (Table 2). Solvent A consisted of ddH2O (0.2 μm filtered) and solvent B consisted of methanol (MeOH) (HPLC grade, Fisher Scientific, Fairlawn NJ), with each solvent containing 0.1% formic acid (v/v, LC/MS grade, Fisher Scientific).
Peptide stability in combination with ML-C14 was investigated using a modified version of the above noted procedure. Aliquots of dynantin or MDP were first combined with varying amounts of ML-C14 (in THF, 20 μL total addition), and then thoroughly mixed before the addition of thawed rat plasma (88 μL). A control sample was also prepared by combining each peptide with THF alone (20 μL) and plasma (88 μL). Samples were incubated at 37 °C in a heating mantle for varying lengths of time before being stored at -80 °C. For HPLC analysis, samples were thawed, thoroughly mixed, diluted in MeOH to destroy liposome particles (1/10 for dynantin, 1/5 for MDP), and solids pelleted by centrifugation at 10,000 rpm and 20 °C for 5 min. The supernatants were carefully removed for analysis (8 μL injections, in duplicate). Stability is represented as the percentage of peptide remaining relative to the amount determined at T-zero.

in vitro = assay: in vitro
Description: as §1, §2, §3

thawed rat plasma = details: Female Sprague Dawley rats, 37 °C, up to 24 hours

degradation of MDP in rat plasma [1]: Complete degradation
degradation of MDP in rat plasma (in vitro): completely degraded
metabolised at 12 h (in vitro; female, Sprague Dawley, rat, plasma): ~60%
Molecule: CC(=O)N[C@H]1C(O)O[C@H](CO)[C@@H](O)[C@@H]1O[C@H](C)C(=O)N[C@@H](C)C(=O)N[C@H](CCC(=O)O)C(N)=O (stereo partly shown) [MDP, muramyl dipeptide]

Molecule: CC[C@H](C)[C@H](NC(=O)[C@H](CCCN=C(N)N)NC(=O)[C@H](CCCN=C(N)N)NC(=O)[C@H](CC(C)C)NC(=O)[C@H](Cc1ccccc1)NC(=O)CNC(=O)CNC(=O)[C@@H](C)Cc1c(C)cc(O)cc1C)C(=O)N[C@@H](CCCN=C(N)N)C(=O)N1CCC[C@H]1C(=O)N[C@@H](CCCCN)C(N)=O [dynantin]
dynantin remaining in rat plasma ([1]; with ML-C14, peptide:glycolipid 1:4, EDTA rat plasma 88 μL, 12 h, diluted 1/10 in MeOH, mean ± SEM of three experiments): 21 ± 4%
dynantin remaining in rat plasma ([1]; with ML-C14, peptide:glycolipid 1:4, rat plasma, 24 h): no detectable peptide
dynantin remaining in rat plasma ([1]; with ML-C14, peptide:glycolipid 1:8, rat plasma, 12 h, mean ± SEM of three experiments): 62 ± 4%
dynantin remaining in rat plasma ([1]; with ML-C14, peptide:glycolipid 1:8, rat plasma, 24 h, mean ± SEM of three experiments): 20 ± 3%
dynantin degradation in rat plasma ([1]; with ML-C14, peptide:glycolipid 1:8, rat plasma): completely degraded
dynantin remaining in rat plasma ([1]; with ML-C14, peptide:glycolipid 1:10, rat plasma, 12 h, mean ± SEM of three experiments): 66 ± 6%
dynantin remaining in rat plasma ([1]; with ML-C14, peptide:glycolipid 1:10, rat plasma, 24 h, mean ± SEM of three experiments): 19 ± 4%
dynantin degradation in rat plasma ([1]; with ML-C14, peptide:glycolipid 1:10, rat plasma): completely degraded
degradation of dynantin in rat plasma (in vitro; peptide alone, EDTA rat plasma, 37 °C, 12 h, RP-HPLC, UV 210 nm, relative to T-zero, three experiments): complete dynantin degradation

cleaved bond (thawed rat plasma): L-R and R-R, major and R-I
Molecule: (2S)-Mdp-G-G-F-L-R-R-I-R-P-K-NH2
